From patent US12172995B2, “Substituted indole and indazole compounds” (BRISTOL-MYERS SQUIBB COMPANY, priority 2018, dated 2024)

How the values were obtained:
Type in all cases: cell-based
human TLR7 = biological target: T1, human TLR7 (Homo sapiens, UniProt Q9NYK1); test: TLR7 inhibition reporter assay (HEK-Blue SEAP); conditions: HEK-Blue cells overexpressing human TLR7, stimulated with gardiquimod 7.5 μM, 22 hour incubation
T1 construct: host or cells: HEK-Blue cells
T1 sequence (Q9NYK1 27-1049): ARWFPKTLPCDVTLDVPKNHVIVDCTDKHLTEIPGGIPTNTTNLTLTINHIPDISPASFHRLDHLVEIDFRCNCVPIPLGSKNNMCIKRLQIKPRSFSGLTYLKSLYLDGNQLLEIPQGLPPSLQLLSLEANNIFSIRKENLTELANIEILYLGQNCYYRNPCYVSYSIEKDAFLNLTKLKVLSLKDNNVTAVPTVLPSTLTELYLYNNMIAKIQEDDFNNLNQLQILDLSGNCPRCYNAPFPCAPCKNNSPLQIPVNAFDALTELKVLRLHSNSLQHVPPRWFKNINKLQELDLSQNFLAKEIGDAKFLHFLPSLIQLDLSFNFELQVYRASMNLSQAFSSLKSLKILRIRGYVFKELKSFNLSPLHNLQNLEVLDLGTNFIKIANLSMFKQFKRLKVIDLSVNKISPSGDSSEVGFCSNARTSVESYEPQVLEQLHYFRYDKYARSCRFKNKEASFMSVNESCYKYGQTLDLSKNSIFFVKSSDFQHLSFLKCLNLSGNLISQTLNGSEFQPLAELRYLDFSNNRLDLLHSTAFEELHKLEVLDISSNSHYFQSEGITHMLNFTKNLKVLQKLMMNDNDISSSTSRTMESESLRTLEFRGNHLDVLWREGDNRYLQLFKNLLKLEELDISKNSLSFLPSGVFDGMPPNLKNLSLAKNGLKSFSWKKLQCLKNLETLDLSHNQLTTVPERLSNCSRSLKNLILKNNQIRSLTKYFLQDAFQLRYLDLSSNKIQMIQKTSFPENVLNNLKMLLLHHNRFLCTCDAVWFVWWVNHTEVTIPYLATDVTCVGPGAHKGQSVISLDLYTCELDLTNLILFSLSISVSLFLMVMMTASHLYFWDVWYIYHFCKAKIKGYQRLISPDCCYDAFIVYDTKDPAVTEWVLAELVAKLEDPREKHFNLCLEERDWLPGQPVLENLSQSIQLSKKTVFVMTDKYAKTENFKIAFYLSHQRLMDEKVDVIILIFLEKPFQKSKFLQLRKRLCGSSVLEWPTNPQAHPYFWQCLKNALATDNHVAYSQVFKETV
How it was run: (§1)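 Cells are seeded, given test compound across 0.05 nM to 50 μM, and after 30 min at room temperature stimulated with the receptor's agonist (gardiquimod 7.5 μM, R848 15.9 μM or ODN2006 5 nM for TLR7, 8, 9). SEAP is measured after 22 h at 37 °C.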

human TLR8 = biological target: T2, human TLR8 (Homo sapiens, UniProt Q9NR97); test: TLR8 inhibition reporter assay (HEK-Blue SEAP); conditions: HEK-Blue cells overexpressing human TLR8, stimulated with R848 15.9 μM, 22 hour incubation
T2 construct: host or cells: HEK-Blue cells
T2 sequence (Q9NR97 27-1041): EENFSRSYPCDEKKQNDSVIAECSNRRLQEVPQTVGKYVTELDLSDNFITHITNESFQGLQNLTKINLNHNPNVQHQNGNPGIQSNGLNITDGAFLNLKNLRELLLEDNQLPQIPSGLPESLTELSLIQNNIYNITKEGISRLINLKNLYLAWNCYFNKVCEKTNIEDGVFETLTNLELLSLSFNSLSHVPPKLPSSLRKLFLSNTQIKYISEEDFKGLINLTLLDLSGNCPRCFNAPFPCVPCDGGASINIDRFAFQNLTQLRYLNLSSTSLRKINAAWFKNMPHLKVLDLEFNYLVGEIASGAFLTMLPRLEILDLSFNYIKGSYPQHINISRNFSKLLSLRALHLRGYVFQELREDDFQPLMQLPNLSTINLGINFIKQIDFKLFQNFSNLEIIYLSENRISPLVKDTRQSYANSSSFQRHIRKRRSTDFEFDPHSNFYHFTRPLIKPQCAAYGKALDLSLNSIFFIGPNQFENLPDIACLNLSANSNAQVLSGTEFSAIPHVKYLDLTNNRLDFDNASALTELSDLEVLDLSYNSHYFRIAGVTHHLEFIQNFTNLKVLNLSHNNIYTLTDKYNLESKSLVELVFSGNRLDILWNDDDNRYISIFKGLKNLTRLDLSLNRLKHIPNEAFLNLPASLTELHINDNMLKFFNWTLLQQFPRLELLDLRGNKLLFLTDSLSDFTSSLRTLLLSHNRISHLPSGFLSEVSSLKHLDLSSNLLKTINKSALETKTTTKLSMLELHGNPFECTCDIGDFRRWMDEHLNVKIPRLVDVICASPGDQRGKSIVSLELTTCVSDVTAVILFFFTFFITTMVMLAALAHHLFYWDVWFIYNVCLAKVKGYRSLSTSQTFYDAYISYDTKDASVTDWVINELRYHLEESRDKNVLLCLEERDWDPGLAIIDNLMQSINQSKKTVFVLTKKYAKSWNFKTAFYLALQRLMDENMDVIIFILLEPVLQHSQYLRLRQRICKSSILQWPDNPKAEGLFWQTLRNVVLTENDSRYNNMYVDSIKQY
How it was run: as §1

human TLR9 = biological target: T3, human TLR9 (Homo sapiens, UniProt Q9NR96); test: TLR9 inhibition reporter assay (HEK-Blue SEAP); conditions: HEK-Blue cells overexpressing human TLR9, stimulated with ODN2006 5 nM, 22 hour incubation
T3 construct: host or cells: HEK-Blue cells
T3 sequence (Q9NR96 26-1032): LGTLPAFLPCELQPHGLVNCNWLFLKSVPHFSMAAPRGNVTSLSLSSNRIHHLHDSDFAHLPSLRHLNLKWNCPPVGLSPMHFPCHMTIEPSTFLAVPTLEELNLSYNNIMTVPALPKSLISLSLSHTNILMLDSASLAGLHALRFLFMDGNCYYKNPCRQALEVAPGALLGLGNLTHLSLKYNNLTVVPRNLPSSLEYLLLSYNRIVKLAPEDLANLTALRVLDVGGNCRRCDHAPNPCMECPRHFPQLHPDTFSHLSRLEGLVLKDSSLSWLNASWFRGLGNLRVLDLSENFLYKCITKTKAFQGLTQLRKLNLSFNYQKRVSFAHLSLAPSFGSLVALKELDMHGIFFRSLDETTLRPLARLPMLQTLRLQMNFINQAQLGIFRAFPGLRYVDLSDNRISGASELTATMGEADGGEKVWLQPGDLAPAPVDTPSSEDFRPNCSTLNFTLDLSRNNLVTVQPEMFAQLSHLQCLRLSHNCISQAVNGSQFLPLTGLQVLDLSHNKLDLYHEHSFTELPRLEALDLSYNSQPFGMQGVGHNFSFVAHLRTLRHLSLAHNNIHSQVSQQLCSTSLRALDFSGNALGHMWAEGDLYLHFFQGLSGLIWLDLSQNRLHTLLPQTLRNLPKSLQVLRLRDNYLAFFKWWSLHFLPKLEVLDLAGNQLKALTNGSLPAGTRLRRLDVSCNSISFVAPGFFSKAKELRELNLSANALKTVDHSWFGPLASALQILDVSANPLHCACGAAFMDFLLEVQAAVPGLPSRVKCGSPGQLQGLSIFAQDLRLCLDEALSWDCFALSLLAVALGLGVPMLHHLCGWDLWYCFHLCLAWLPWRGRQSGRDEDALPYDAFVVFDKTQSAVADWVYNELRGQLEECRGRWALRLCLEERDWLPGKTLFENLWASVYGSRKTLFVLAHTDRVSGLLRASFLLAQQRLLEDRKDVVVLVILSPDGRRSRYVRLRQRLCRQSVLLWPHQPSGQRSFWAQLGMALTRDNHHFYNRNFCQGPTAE
How it was run: as §1

Row | SMILES | IC50 (human TLR7) | IC50 (human TLR8) | IC50 (human TLR9)
1 | Cc1cc2c(C3CCCNC3)n[nH]c2cc1-c1cn(C)c2ncccc12 (stereo not drawn) [Example 47, 5-methyl-6-(1-methyl-1H-pyrrolo[2,3-b]pyridin-3-yl)-3-(piperidin-3-yl)-1H-indazole] | 22.9 nM | 0.2 nM | 2.88 µM
2 | COc1cc(-c2ccc3c(C(=O)NC4CCNCC4)c[nH]c3c2)cn2ncnc12 [Example 197, 6-(8-methoxy-[1,2,4]triazolo[1,5-a]pyridin-6-yl)-N-(piperidin-4-yl)-1H-indole-3-carboxamide] | 319 nM | 2360 nM | 28.2 µM
3 | Cc1cc(-c2cc(C)c3ncnn3c2)cc2[nH]nc(OCCN(C)C)c12 [Example 173, N,N-dimethyl-2-((4-methyl-6-(8-methyl-[1,2,4]triazolo[1,5-a]pyridin-6-yl)-1H-indazol-3-yl)oxy)ethan-1-amine] | 18.9 nM | 8 nM | 1.85 µM
4 | Cc1cc2c(C3CCNCC3)n[nH]c2cc1-c1cc(C)c2ncnn2c1C [Example 83, 5,8-dimethyl-6-(5-methyl-3-(piperidin-4-yl)-1H-indazol-6-yl)-[1,2,4]triazolo[1,5-a]pyridine] | 45 nM | 5.5 nM | 8.01 µM
5 | Cc1cc2c(C3CCN(C(=O)CN(C)C)CC3)n[nH]c2cc1-c1cc(C)c2ncnn2c1 [Example 20, 2-(dimethylamino)-1-(4-(5-methyl-6-(8-methyl-[1,2,4]triazolo[1,5-a]pyridin-6-yl)-1H-indazol-3-yl)piperidin-1-yl)ethan-1-one] | 24.6 nM | 3.8 nM | 4.42 µM
6 | Cc1cc(-c2cc3[nH]nc(C4CCC(N5CC6(CCO6)C5)CC4)c3cc2C(C)C)cn2ncnc12 (stereo not drawn) [Example 155, 6-(4-(5-isopropyl-6-(8-methyl-[1,2,4]triazolo[1,5-a]pyridin-6-yl)-1H-indazol-3-yl)cyclohexyl)-1-oxa-6-azaspiro[3.3]heptane] | 1.8 nM | 0.2 nM | 7.56 µM
7 | CCc1cc2c(OC3CCC(N(C)C)CC3)n[nH]c2cc1-c1cc(C)c2ncnn2c1 (single isomer, unassigned) [Example 191, 4-((5-ethyl-6-(8-methyl-[1,2,4]triazolo[1,5-a]pyridin-6-yl)-1H-indazol-3-yl)oxy)-N,N-dimethylcyclohexan-1-amine] | 2.6 nM | 0.5 nM | 14.6 µM
8 | CCc1cc2c(C3CCC(NC4CC4)CC3)n[nH]c2cc1-c1cc(C)c2ncnn2c1 (single isomer, unassigned) [Example 97, N-cyclopropyl-4-(5-ethyl-6-(8-methyl-[1,2,4]triazolo[1,5-a]pyridin-6-yl)-1H-indazol-3-yl)cyclohexan-1-amine] | 0.6 nM | 0.1 nM | 5.45 µM
9 | Cc1cc(-c2ccc3c(C4CCC(N(C)C)CC4)c[nH]c3c2)cn2ncnc12 (single isomer, unassigned) [Example 14, N,N-dimethyl-4-(6-(8-methyl-[1,2,4]triazolo[1,5-a]pyridin-6-yl)-1H-indol-3-yl)cyclohexan-1-amine] | 80.6 nM | 115 nM | 3.43 µM
10 | Cc1cc2c(C3CCC(NCC(=O)N(C)C)CC3)n[nH]c2cc1-c1cc(C)c2ncnn2c1 (single isomer, unassigned) [Example 28, N,N-dimethyl-2-((4-(5-methyl-6-(8-methyl-[1,2,4]triazolo[1,5-a]pyridin-6-yl)-1H-indazol-3-yl)cyclohexyl)amino)acetamide] | 12.4 nM | 0.4 nM | 4.41 µM
11 | Cc1cc(-c2cc3[nH]nc(C4CCN(C5CCOCC5)CC4)c3cc2C(C)C)cn2ncnc12 [Example 116, 6-(5-isopropyl-3-(1-(tetrahydro-2H-pyran-4-yl)piperidin-4-yl)-1H-indazol-6-yl)-8-methyl-[1,2,4]triazolo[1,5-a]pyridine] | 0.6 nM | 0.1 nM | 6.55 µM
12 | Cc1cc(-c2cc(C)c3ncnn3c2)cc2[nH]nc(OC3CCN(C4CCOCC4)CC3)c12 [Example 178, 8-methyl-6-(4-methyl-3-((1-(tetrahydro-2H-pyran-4-yl)piperidin-4-yl)oxy)-1H-indazol-6-yl)-[1,2,4]triazolo[1,5-a]pyridine] | 6.1 nM | 0.5 nM | 1.62 µM
13 | COc1ccc(-c2cc3[nH]nc(C4CCCNC4)c3cc2C)cc1OC (stereo not drawn) [Example 62, 6-(3,4-dimethoxyphenyl)-5-methyl-3-(piperidin-3-yl)-1H-indazole] | 824 nM | 5.2 nM | 3.2 µM
14 | Cc1cc(-c2ccc3c(C4CCNCC4)c[nH]c3c2)cn2ncnc12 [Example 12, 8-methyl-6-(3-(piperidin-4-yl)-1H-indol-6-yl)-[1,2,4]triazolo[1,5-a]pyridine] | 16.9 nM | 31.2 nM | 0.192 µM
